# According to US7241861B2, “High density lipoprotein-reactive peptides” (Japan Immunoresearch Laboratories Co., Ltd., priority 2001, dated 2007):
# Tests used:
# RAW264 cells = assay: Cholesterol efflux test in RAW264 cells loaded with acetylated LDL; assay type: cell-based, mouse; settings: foam with acetylated LDL; peptide 20, 2.0 or 0.2 μg/mL, 24 hours; supernatant cholesterol (FIG. 4)
# Method: The aforementioned peptides were examined with regard to cholesterol efflux effect from RAW264 cells (a model of atherosclerosis).
# Specifically, RAW264 cells (mouse monocytic leukemia cell strain) were added to DMEM medium that had been supplemented with 10% FBS, to thereby prepare a specimen having a concentration of 4×10^5 cells/mL. An aliquot of the specimen (1 mL) was added to each well of a 12-well plate, followed by culture for two days in a CO2 incubator (37° C.). The medium in each well was removed, and the cells in the well were washed once with 1 mL of DMEM containing 0.2% BSA and 20 mM glutamine (hereinafter referred to as “DMEM”). Subsequently, a solution of acetylated LDL in DMEM (40 μg/mL, 1 mL) was added to each well, followed by culture for 24 hours in a CO2 incubator (37° C.), whereby acetylated LDL entered into the cells. The cells were washed twice with PBS supplemented with 0.2% BSA. Thereafter, a solution of dibutyl cAMP in DMEM (0.3 mM, 1 mL) was added to each well, followed by incubation for 2 hours in a CO2 incubator (37° C.).
# The test peptide (20 μL) was added to each well so as to attain a final concentration of 20, 2.0, or 0.2 μg/mL, followed by culture for 24 hours in a CO2 incubator (37° C.).
# After 24 hours, the supernatant of each well was collected in a microtube, and the microtube was centrifuged for five minutes at 10,000 rpm. The cholesterol level of the supernatant was measured by means of the autoanalyzer described above.
# Each test peptide was dissolved in DMSO (5 mg/mL), and the thus-formed solution was diluted with DMEM so as to attain a concentration of 1 mg/mL. Subsequently, the resultant solution was diluted 10-fold or 100-fold with DMEM, to thereby prepare a test sample. Moreover, in order to prepare a control sample, only DMSO was diluted with DMEM so as to attain a final concentration of 0.4, 0.04, or 0.004%; and in order to prepare a positive control sample, delipid HDL was diluted with DMEM so as to attain a concentration of 2.5, 5.0, or 10 μg/mL.
# HDL cholesterol = assay: Reactivity with HDL: HDL sample reacted with peptide-bound affinity gel, analysis of unbound fraction; assay type: binding, Human; settings: for reduction of total cholesterol level of HDL: Example 5, total cholesterol level of applied HDL sample 12.7 mg/dl
# Method: The peptide obtained in (1) above (B100FL, 0.1 mg) was added to affinity gel (25 μL) to which an anti-apo B-100 monoclonal antibody (JI-H) had been immobilized, whereby a B100FL-bound affinity gel was prepared. A control gel was prepared by treating gel with PBS (not containing B100FL) in a manner similar to the above.
# Human plasma (1 mL) was added to affinity gel (2 mL) to which an anti-apo A-I monoclonal antibody had been immobilized, to thereby cause HDL to be specifically bound to the gel. The bound HDL was eluted with 3M sodium thiocyanate, and the buffer of the thus-obtained eluent was changed to PBS through use of a column for desalting, to thereby prepare an HDL sample.
# The aforementioned anti-apo A-I monoclonal antibody immobilized affinity gel and anti-apo B-100 monoclonal antibody (JI-H) immobilized affinity gel were prepared in accordance with a conventional method (Japanese Patent Publication (kokoku) No. 7-104351).
# The HDL sample (containing 20 μg of apo A-I) was reacted with the B100FL-bound affinity gel for 30 minutes at room temperature. Subsequently, the reaction mixture was left to stand for 15 minutes to thereby cause the gel to precipitate, to thereby remove the gel from the reaction mixture.
# Total cholesterol level: Total cholesterol level was determined with a reagent for measuring cholesterol level (L-TCII, Kyowa Medex Co., Ltd.) by means of an autoanalyzer (TBA20R; Toshiba).
# Lipoprotein analysis: Lipoprotein was analyzed through HPLC of a lipoprotein analysis system (Lipopropax XL, eluent: TSK eluent LP-1, 1 mL/min., sample volume: 100 μL; Tosoh) by monitoring colors produced by cholesterol.
# Protein concentration: Each protein concentration was determined by measuring absorbance (OD280); or through the Lowry method in which each sample (which had been delipidized with ethanol-ether) was subjected to color reaction.
# Protein analysis: Protein was analyzed by SDS-gel electrophoresis. Specifically, each sample was subjected to delipidizing treatment and solubilized with 1% SDS, followed by treatment with a buffer (2% SDS/10% glycerol/0.005% BPB/20% 2-mercaptoethanol), to thereby prepare a sample for electrophoresis. The resultant sample was electrophoresed in a 4-20% gradient gel in accordance with a conventional method.
# In a manner similar to that described in Example 1 (3), reactivity of PS509 (synthesized in Example 2) with HDL was examined (as a test peptide, B-100FL or PS509 was employed, and the total cholesterol level of the applied HDL sample was 12.7 mg/dl).
# [1] = system: anti-apo B-100 monoclonal antibody (JI-H); assay: Reactivity with anti-apo B-100 monoclonal antibody (JI-H) by ELISA on peptide-coated plate; assay type: binding; settings: OD450 vs immobilized peptide concentration (FIG. 1)
# Description: (2) Reactivity with anti-apo b-100 Monoclonal Antibody (JI-H: J. Clin. Ligand Assay, 19 (3), 177 (1999))
# The reactivity was confirmed through ELISA in accordance with a conventional method by using a plate coated with the peptide obtained above (B100FL) (see Japanese Patent Application Laid-Open (kokai) No. 4-104798).
# [2] = system: quail arteriosclerosis model; assay: Effect test by use of an arteriosclerosis model (high-cholesterol-fed quails, aortic arch histology); assay type: in vivo
# Description: Cholesterol (Wako Pure Chemical Industries, Ltd.) and corn oil (Corn Germ Oil 100; Ajinomoto Co., Inc.) were incorporated into a commercially available feed (product of Natural Pet Foods, “Chicks and nestlings (Quail)”) so as to attain final concentrations of 2% and 15%, respectively, to thereby prepare a high-cholesterol feed.
# Healthy quails were bred while being allowed to freely intake the high-cholesterol feed for eight weeks. From five weeks after the beginning of breeding, a solution of the test peptide (B-100FL) in saline (1.0 mg/mL) was administered to the brachial (wing) vein (200 μL; 200 μg/body) twice a week at the interval of two through three days. In a manner similar to that described above, only saline was administered to the quails of a control group.
# After the quails had been bred for eight weeks, the head of each quail was cut for exsanguination, and an aorta sample was obtained. The aorta sample was immediately fixed in a fixing solution (10% formalin) for three days. Subsequently, a tissue specimen (a frozen section having a thickness of 4 μm) of the aortic arch (where arteriosclerosis foci are most likely to occur) was prepared. The tissue specimen was subjected to hematoxylin-and-eosin staining (routine staining), and to oil-red staining (fat staining), followed by examination under a microscope.
# [3] = 200 μg/body i.v. twice a week from week 5 to 8, aortic arch section
substance,measurement,setting,value
DFEVAEKINA FRAKVHEL IE R [P21],cholesterol efflux effect from RAW264 cells,RAW264 cells,not to exhibit the effect
EKINA FRAKVHEL IE R [PS508],cholesterol efflux effect from RAW264 cells,RAW264 cells,not to exhibit the effect
"FERINDVLEHVKHFVINLIGDFEVAEKINA (FERINDVLEHVKHFVINLIGDFEVAEKINA) [PS509, Apo B-100 position 2,307–2,336]",reduction of total cholesterol level of HDL,HDL cholesterol,about 48 percentage points
same,cholesterol efflux effect from RAW264 cells,RAW264 cells,strong cholesterol efflux effect
"LLDQLGTTIS FERIND (LLDQLGTTISFERIND) [PS507, Apo B-100 position 2,297–2,312]",cholesterol efflux effect from RAW264 cells,RAW264 cells,not to exhibit the effect
"LLDQLGTTISFERINDVLEHVKHF (LLDQLGTTISFERINDVLEHVKHF) [PS506, Apo B-100 position 2,297–2,320]",cholesterol efflux effect from RAW264 cells,RAW264 cells,not to exhibit the effect
"LLDQLGTTISFERINDVLEHVKHFVINLIG (LLDQLGTTISFERINDVLEHVKHFVINLIG) [PS505, Apo B-100 position 2,297–2,326]",cholesterol efflux effect from RAW264 cells,RAW264 cells,strong cholesterol efflux effect
"LLDQLGTTISFERINDVLEHVKHFVINLIGDFEVAEKINAFRAKVHEL IE R (LLDQLGTTISFERINDVLEHVKHFVINLIGDFEVAEKINAFRAKVHELIER) [P51, 51 amino acid residues, the 2,297th to the 2,347th amino acid residues of apo B-100]",reactivity with JI-H,[1],specific reactivity
same,reduction of total cholesterol level of HDL,HDL cholesterol,about 72 percentage points
same,peak attributed to cholesterol (HDL-C) in lipoprotein analysis,"HDL cholesterol; FIG. 2, HDL sample treated with B100FL-bound gel",does not include a peak
same,total cholesterol level relative to HDL sample treated with the control gel,HDL cholesterol; HDL sample treated with B100FL-bound gel vs control gel,about 1/15
same,HDL-C,HDL cholesterol; HDL-cholesterol by lipoprotein analysis (HPLC) of fraction that did not bind to the B100FL gel,243.2 Area
same,interaction with cholesterol and cholesterol ester of HDL,"HDL cholesterol; conclusion from cholesterol, lipoprotein and SDS-gel analysis",has an effect of effluxing cholesterol and cholesterol ester from apoprotein particles of HDL
same,Cholesterol (total cholesterol level),"HDL cholesterol; fraction that did not bind to the B100FL gel, HDL sample containing 20 μg apo A-I, 30 min room temperature",0.25 mg/dL
same,cholesterol efflux effect from RAW264 cells,RAW264 cells,strong cholesterol efflux effect
same,lipid accumulation in the internal tunica,"[2]; 200 μg/body i.v. (wing vein) twice a week from week 5 to 8 of high-cholesterol feed, aortic arch section",a small amount of lipid accumulation was observed
same,morphological disorder of the vessel internal tunica,[2]; [3],no morphological disorder
same,thickening of the internal tunica and lipid infiltration into the middle tunica,[2]; [3],absent
